What was measured:
Pieris brassicae = assay: Biological activity on Pieris brassicae (Lepitoptera), 5-day old larvae; type: in vivo; conditions: 0.1 permill.; 48 hours after treatment
Protocol: Biological activity on Pieris brassicae (Lepitoptera)
Cut cauliflower leaves were sprinkled with an aqueous dispersion of the products under examination. After drying, the leaves were infested with 5-day old larvae. The percentage death rate of the larvae (untreated leaves=0) was determined 48 hours after treatment.

Spodoptera littoralis = assay: Biological activity on Spodoptera littoralis (Lepidoptera), 5-days old larvae; type: in vivo; conditions: 0.1 permill.; 48 hours after treatment
Protocol: Biological activity on Spodoptera littoralis (Lepidoptera)
Cut tobacco leaves were sprinkled with an aqueous dispersion of the products under examination. After drying, the leaves were infested with 5-days old larvae. The percentage mortality of the larvae was determined 48 hours after treatment (untreated leaves, mortality=0).

Culex pipiens larvae = assay: Biological activity on Culex pipiens (diptera) larvae; type: in vivo; conditions: 24 hours after treatment, read-out: percentage of reduction of the infestation (percentage death rate), Culex larvae
Protocol: Biological activity on Culex pipiens (diptera) larvae
Into glasses containing an aqueous dispersion of the products under examination, were introduced third and fourth age mosquito larvae. The percentage death rate of the larvae (glasses containing pure water=0) was determined 24 hours after treatment.

Culex pipiens adults = assay: Biological activity on Culex pipiens (Diptera): adults; type: in vivo; conditions: 0.2 g/m^2, 24 hours after beginning of treatment, read-out: percentage of reduction of the infestation (mortality percentage), Culex ad.
Protocol: Biological activity on Culex pipiens (Diptera): adults
Whatman n°1 paper rectangles were treated uniformly with an acetonic solution of the products under examination. After evaporation of the solvent, each treated paper rectangle was used to line the inside wall of a perspex cylinder (model OMS). The paper-lined perspex cylinder was then closed with a net after having introduced into it 2-3 days old adult females. After one hour from the start of the contact, the insects were transferred into a similar cylinder likewise lined with untreated paper, and were fed with a sugary solution.
The mortality percentage (untreated insects=0) was determined 24 hours after the beginning of the treatment.

Musca domestica = assay: Biological activity on Musca domestica (Diptera), topical application; type: in vivo; conditions: 0.5 γ/ins, 24 hours after treatment
Protocol: Biological activity on Musca domestica (Diptera)
4-days old adults were treated, by topical application by microsyringe, with an acetonic solution of the products under examination.
The mortality percentage (insects treated with acetone only=0) was determined 24 hours after the treatment.

[1] = test system: Leptinatarsa decomlineata; assay: Biological activity on Leptinatarsa decomlineata (Coledptera), 4-day old larvae; type: in vivo; conditions: 0.1 permill.; 48 hours after treatment
Protocol: Biological activity on Leptinatarsa decomlineata (Coledptera)
Small, pot-grown potato-plants were infested with 4-day old larvae, and then were sprinkled with an aqueous dispersion of the products under examination. The percentage death rate (untreated plants=0) was determined 48 hours after treatment.

Macrosiphum euphorbiae = assay: Biological activity on Macrosiphum euphorbiae (aphides); type: in vivo; design: tested at 0.01 permill; conditions: 0.01 permill.; 24 hours after treatment
Protocol: Biological activity on Macrosiphum euphorbiae (aphides)
Small potato plants grown in pots were infested with adult female aphides and, after several hours, were sprinkled with an aqueous dispersion of the products under examination.
The percentage death rate was determined 24 hours after treatment (untreated plants=0).

Tetranychus urticae = assay: Biological activity on Tetranychus urticae (Acari) adults; type: in vivo; conditions: 0.01 permill.; 24 hours after treatment
Protocol: Biological Activity on Tetranychus urticae (Acari) adults
Small bean leaf discs were infected with adult acari and were then sprinkled with an aqueous dispersion of the products under examination. The percentage of mortality was determined 24 hours after the treatment (untreated discs, mortality=0).

Meloidogyne incognita = assay: Biological activity on Meloidogyne incognita (Nematoda); type: in vivo; conditions: 20 ppm; 21 days after transplanting
Protocol: Biological activity on Meloidogyne incognita (Nematoda)
Aliquot parts of a 1:1 mixture of field soil and sand, infested by Nematoda larvae and eggs, were treated by uniformly mixing same with an aqueous dispersion of the products under examination. The soil was then distributed into plastic pots, and after 5 days into each pot there were transplanted 5 tomato plants about 20 cm high. The survey of the results was carried out 21 days after the transplanting, by observing the roots of the plants extracted from the soil in order to ascertain the degree of infestation by counting the galls that have formed on them. The nematocide activity was expressed as a percentage of reduction of the infestation with respect to the witness plant (small plants transplanted into untreated soil, activity=0).

Blatta orientalis = assay: Biological activity on Blatta orientalis (Ortoptera); type: in vivo; conditions: 0.1 g/m^2, 48 hours after start of treatment, read-out: percentage of reduction of the infestation (percentage mortality), Blatta
Protocol: Biological activity on Blatta orientalis (Ortoptera)
The bottom and side walls of glass beakers were treated uniformly with an acetonic solution of the products under examination. After evaporation of the solvent in each beaker, into the same were then introduced ten, 80-100 days old neanides, whereafter they were closed with a lid of metal netting. After 24 hours from the beginning of the treatment, the insects were transferred into untreated glass beakers, and suitably nourished. The percentage mortality (untreated insects=0) was determined 48 hours after the start of the treatment.

Toxicity by os on rats = conditions: rat, in vivo, po

Row | SMILES | percentage of reduction of the infestation (percentage death rate of larvae), Pieris B (Pieris brassicae) [%] | percentage of reduction of the infestation (percentage mortality of larvae), Spodoptera L (Spodoptera littoralis) [%] | mortality at 0.2 ppm (Culex pipiens larvae) [%] | mortality at 0.2 g/m2 (Culex pipiens adults) [%] | percentage of reduction of the infestation (mortality percentage), Musca d. (Musca domestica) [%] | percentage of reduction of the infestation (percentage death rate), Leptinot D. [1] [%] | percentage of reduction of the infestation (percentage death rate), Macrosiph. E. (Macrosiphum euphorbiae) [%] | percentage of reduction of the infestation (percentage of mortality), Tetran U. (Tetranychus urticae) [%] | percentage of reduction of the infestation, Meloidog. I. (Meloidogyne incognita) [%] | mortality at 0.1 g/m2 (Blatta orientalis) [%] | LD50 (Toxicity by os on rats) [mg/kg]
1 | CCOP(=S)(OC)Oc1cc(Cl)n(-c2ccc([N+](=O)[O-])cc2)n1 (stereo not drawn) [Compound 51] | 100 | 100 | 100 | 0 | 100 | 85 | 51 | 94 | 82 |  | 
2 | CCOP(=S)(NC(C)C)Oc1cc(Cl)nn1C (stereo not drawn) [Compound 49] | 100 | 15 | 100 | 100 | 100 | 100 | 81 | 63 |  | 100 | 
3 | CCOP(=S)(OCC)Oc1cc(Cl)nn1C [Compound 13] | 100 | 100 | 100 | 100 | 100 | 100 | 99 | 100 | 100 | 100 | 25
4 | CCOP(=S)(OCC)Oc1cc(Cl)n[nH]1 [Compound 11] |  |  |  |  |  |  |  |  |  |  | 70
5 | CCOP(=S)(OCC)Oc1cc(Cl)nn1Cc1ccccc1 [Compound 29] | 100 | 100 | 100 | 5 | 100 | 100 | 60 | 100 | 59 | 100 | 
6 | CCOP(=S)(OCC)Oc1cc(Cl)n(-c2ccc([N+](=O)[O-])cc2)n1 [Compound 52] | 100 | 95 | 100 | 0 | 100 | 37 | 54 | 96 | 96 | 100 | 
7 | CCOP(=S)(OCC)Oc1cc(Cl)nn1CC [Compound 3] | 100 | 82 | 100 | 100 | 100 | 100 | 98 | 100 | 96 | 100 | 
8 | CCOP(=S)(OCC)Oc1cc(Cl)nn1-c1ccccc1 [Compound 2] | 100 | 100 | 100 | 100 | 100 | 97 | 40 |  |  | 100 | 33
9 | CCOP(=S)(OC)Oc1cc(Cl)nn1CC (stereo not drawn) [Compound 24] | 100 | 90 | 100 | 100 | 100 | 100 | 96 | 100 | 62 | 100 | 
10 | CCOP(=S)(OCC)Oc1cc(C=C(Cl)Cl)nn1CCC#N [Compound 9] | 100 | 100 | 100 | 0 | 100 | 100 | 85 | 85 |  | 100 | 
11 | CCn1nc(Cl)cc1OP(=S)(OC)OC [Compound 21] | 100 | 70 | 100 | 100 | 100 | 100 | 100 | 100 | 100 | 100 | 
12 | COP(=S)(OC)Oc1cc(Cl)nn1C(C)C [Compound 4] |  | 80 | 100 | 100 | 100 | 100 | 94 | 80 |  | 100 | 1100
13 | CCOP(=S)(OCC)Oc1cc(Cl)nn1CCC#N [Compound 7] | 100 | 100 | 100 | 70 | 100 | 100 | 100 | 100 | 100 | 100 | 
